Measured values reported in PMC12163635, “Synthetic Retinoids for the Modulation of Genomic and Nongenomic Processes in Neurodegenerative Diseases” (ACS Omega, 2025).

What was measured:
Experiment in all cases: Fluorescence competition binding assay (displacement of DC271)
RARα [1] = system: RARα; set-up: species or system human; conditions: log-log plot of K D for RARα and RARγ
Description: (§1) Fluorescence competition assays were employed to determine the relative binding affinities of each synthetic retinoid toward the LBD of the RARs. The assay is based on the potential for competitive displacement of the inherently fluorescent retinoid DC271 from the LBP by a test nonfluorescent synthetic retinoid. Changes in the fluorescence were measured following the addition of a serial dilution of the test compound and the results were plotted to generate a binding curve. […] Assays were performed for both RARα and RARγ. […] Nonlinear least-squares regression analyses were performed to calculate binding affinities and reported as binding K D, the equilibrium dissociation constant between the RAR isoform and the test synthetic retinoid.
(§2) RARα/γ proteins were expressed in BL21(DE3) cells (NEB) transformed into pET50b (Novagen) and pOPINS3C vectors, respectively, carrying the gene construct and containing a His6-3C-NusA tag or His6-3C-SUMO tag used for solubility. Transformations were carried out under standard conditions using Quick Transformation Protocol (New England Biolabs). Successful transformants were grown overnight in 2xYT media (Melford) and frozen for storage at −80 °C in 50% glycerol. Expression cultures were inoculated from glycerol stocks into 25 mL of 2xYT media (Melford) with 50 μg/mL kanamycin or 100 μg/mL ampicillin (Sigma-Aldrich) and grown overnight with shaking (37 °C, 150 rpm). The overnight cultures were transferred into 1 L expression flasks (2xYT/ampicillin 100 μg/mL or 2xYT/kanamycin 50 μg/mL) and grown with shaking at 37 °C, 150 rpm. Induction was carried out at an OD600 of 0.6–0.8, with 1 mL of 1 M IPTG (1 mM in culture), before shaking overnight (20 h) at 18 °C. The resulting cultures were spun down into pellets using an Avanti Hi-Speed centrifuge (JLA 8.1000, 4000 rpm, 30 min, 4 °C), before the supernatant was removed and the bacterial pellet were frozen at −80 °C.
(§3) RARα/γ (pET50b or pOPINS3C, BL21(DE3) (NEB)) were resuspended from pellet with 20 mL Wash Buffer (20 mM Tris-HCl, 300 mM NaCl and 20 mM imidazole, pH 8) and the resulting suspension was sonicated on ice (40% power, 2 min, repeated twice with 1 min rest in-between) before centrifuging (Avanti Hi-Speed JA25.50, 20,000 rpm, 1 h, 4 °C). Supernatants were clarified using 0.45 μm syringe filters (Thermo Fisher Scientific). Affinity chromatography and size-exclusion (SEC) chromatography were carried out on AKTA Pure25 (Cytiva). Supernatants were loaded onto the HisTrap HP column (5 mL, Cytiva) and washed using 25 mL of wash Buffer. The column was washed with Wash Buffer until UV trace returned to baseline, before RARα/γ was eluted using a gradient of Elution Buffer (20 mM Tris-HCl, 300 mM NaCl, 500 mM imidazole pH 8). The resulting protein-containing fractions were analyzed by SDS-PAGE (200 V, 30 min) using SurePAGE Bis-Tris 12% precast gels (Genscript). Protein concentrations were estimated using absorbance at 280 nm on a DS-11 spectrophotometer (Denovix) with calculated molecular weights and extinction coefficients (Expasy). RAR proteins were cleaved overnight from 3C-NusA tag or 3C-SUMO-His tag using 1 Unit/100 μg protein of HRV3C protease (Thermo Fisher Scientific) at 4 °C. Solution after digestion was loaded onto a HiLoad 16/600 Superdex 75 prep-grade column (Cytiva) and cleaved RARα/γ was separated from the tag based on molecular weight and eluted from the column using SEC Buffer (20 mM Tris-HCl, 300 mM NaCl and 0.5 mM TCEP, pH 8) into 2 mL fractions. The resulting protein fractions were analyzed by SDS PAGE (200 V, 30 min) using SurePAGE Bis-Tris 12% precast gels (Genscript), before being concentrated to 5 mg/mL using centrifugal concentrators (Sartorius) and frozen at −80 °C in small aliquots for use in binding assays.

RARα [2] = molecular target: T1, RARα (Homo sapiens, UniProt P10276); conditions: for Kd / Binding KD (± SD) RARα: 100 nM RAR and DC271 on plate; for Kd: read-out: Binding KD (± SD) RARα; for ΔGEXP RARα: experimental binding free energy from K D, ΔGexp=−RT ln K, 298.1 K
T1 construct: His6-3C-NusA (cleaved yes); made in house; host or cells: E. coli BL21(DE3), pET50b vector
T1 sequence (P10276 183-417 limits assumed): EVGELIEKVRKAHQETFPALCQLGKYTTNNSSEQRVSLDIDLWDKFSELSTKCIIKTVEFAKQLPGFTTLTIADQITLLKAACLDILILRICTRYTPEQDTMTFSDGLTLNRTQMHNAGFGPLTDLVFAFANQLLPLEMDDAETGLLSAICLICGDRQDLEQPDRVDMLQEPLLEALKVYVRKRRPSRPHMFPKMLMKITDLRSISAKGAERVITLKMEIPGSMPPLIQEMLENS
Description: as §1, §2, §3

RARγ = molecular target: T2, RARγ (Homo sapiens, UniProt P13631); conditions: for Kd / Binding KD (± SD) RARγ: 100 nM RAR and DC271 on plate; for Kd: read-out: Binding KD (± SD) RARγ; for ΔGEXP RARγ: experimental binding free energy from K D, ΔGexp=−RT ln K, 298.1 K
T2 construct: His6-3C-SUMO (cleaved yes); made in house; host or cells: E. coli BL21(DE3), pOPINS3C vector
T2 sequence (P13631 185-419 limits assumed): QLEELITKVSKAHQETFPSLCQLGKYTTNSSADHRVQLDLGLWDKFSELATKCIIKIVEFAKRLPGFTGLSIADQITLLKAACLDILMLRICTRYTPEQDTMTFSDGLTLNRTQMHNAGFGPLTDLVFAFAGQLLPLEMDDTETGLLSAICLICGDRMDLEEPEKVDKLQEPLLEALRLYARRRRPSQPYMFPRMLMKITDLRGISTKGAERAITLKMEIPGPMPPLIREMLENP
Description: as §1, §2, §3

Chain of RARα (P10276 182-417): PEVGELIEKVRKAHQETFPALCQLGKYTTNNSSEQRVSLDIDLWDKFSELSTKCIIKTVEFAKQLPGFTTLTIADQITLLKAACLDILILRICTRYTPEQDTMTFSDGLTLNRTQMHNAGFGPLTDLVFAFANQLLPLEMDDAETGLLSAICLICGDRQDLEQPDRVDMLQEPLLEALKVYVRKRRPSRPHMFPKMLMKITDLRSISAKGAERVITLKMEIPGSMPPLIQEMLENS

Structure (SMILES) | binding preference RARα versus RARγ (from K D) (RARα [1]) | Kd (RARα [2]) [nM] | ΔGEXP RARα (RARα [2]) | Kd (RARγ) [nM] | ΔGEXP RARγ (RARγ) | Binding KD (± SD) RARα (RARα [2]) | Binding KD (± SD) RARγ (RARγ)
CC1(C)CCC(C)(C)c2cc(C#Cc3ccc(C(=O)O)cc3Cl)ccc21 [Compound 16, 3-Chloro-4-[2-(5,5,8,8-tetramethyl-5,6,7,8-tetrahydronaphthalen-2-yl)ethynyl]benzoic Acid] | bind RARγ stronger than RARα | 73.7 | -9.79 kcal/mol | 24.2 | -10.4 kcal/mol |  | 
Cc1cc2c(cc1C#Cc1ccc(C(=O)O)cn1)C(C)(C)CCC2(C)C [Compound 26, 6-[2-(3,5,5,8,8-Pentamethyl-5,6,7,8-tetrahydronaphthalen-2-yl)ethynyl]pyridine-3-carboxylic Acid] | bind RARα preferentially over RARγ | 48.3 | -10.0 kcal/mol | 90.5 | -9.61 kcal/mol |  | 
COc1cc2c(cc1C#Cc1ccc(C(=O)O)cn1)C(C)(C)CCC2(C)C [Compound 27, 6-[2-(3-Methoxy-5,5,8,8-tetramethyl-5,6,7,8-tetrahydronaphthalen-2-yl)ethynyl]pyridine-3-carboxylic Acid] | close to the plotted line representing equal binding affinity for RARα and RARγ | 1820 | -7.84 kcal/mol | 2150 | -7.76 kcal/mol |  | 
Cc1sc(-c2ccc(C(=O)O)cc2F)nc1-c1cnc2c(n1)C(C)(C)CCC2(C)C [Compound 43, 3-Fluoro-4-[5-methyl-4-(5,5,8,8-tetramethyl-5,6,7,8-tetrahydroquinoxalin-2-yl)-1,3-thiazol-2-yl]benzoic Acid] | close to the plotted line representing equal binding affinity for RARα and RARγ | 2580 | -7.64 kcal/mol | 2710 | -7.74 kcal/mol |  | 
Cc1cc2c(cc1C#Cc1cc(F)c(C(=O)O)c(F)c1)C(C)(C)CCC2(C)C [Compound 19, 2,6-Difluoro-4-[2-(3,5,5,8,8-pentamethyl-5,6,7,8-tetrahydronaphthalen-2-yl)ethynyl]benzoic Acid] | bind RARα preferentially over RARγ | 5.72 | -11.3 kcal/mol | 33.7 | -10.2 kcal/mol |  | 
Cc1sc(-c2ccc(C(=O)O)cc2)nc1-c1ccc2c(c1)C(C)(C)CCC2(C)C [GZ25, reference compound] |  | 688 | -7.92 kcal/mol | 335 | -8.84 kcal/mol |  | 
CC1(C)CCC(C)(C)c2cc(C#Cc3ccc(C(=O)O)c(F)c3)ccc21 [Compound 13, 2-Fluoro-4-[2-(5,5,8,8-tetramethyl-5,6,7,8-tetrahydronaphthalen-2-yl)ethynyl]benzoic Acid] | close to the plotted line representing equal binding affinity for RARα and RARγ | 13.6 | -10.8 kcal/mol | 18.6 | -10.6 kcal/mol |  | 
CC1(C)CCC(C)(C)c2cc(C#Cc3cc(F)c(C(=O)O)c(F)c3)ccc21 [Compound 15, 2,6-Difluoro-4-[2-(5,5,8,8-tetramethyl-5,6,7,8-tetrahydronaphthalen-2-yl)ethynyl]benzoic Acid] | strongly binds both RARα and RARγ | 0.37 | -13.0 kcal/mol | 22.7 | -10.4 kcal/mol |  | 
CC1(C)CCC(C)(C)c2cc(C#Cc3ccc(C(=O)O)cn3)ccc21 [Compound 23, 6-[2-(5,5,8,8-Tetramethyl-5,6,7,8-tetrahydronaphthalen-2-yl)ethynyl]pyridine-3-carboxylic Acid] | close to the plotted line representing equal binding affinity for RARα and RARγ | 15.8 | -10.7 kcal/mol | 24.3 | -10.4 kcal/mol |  | 
CC1(C)CCC(C)(C)c2cc(C#Cc3cnc(C(=O)O)cn3)ccc21 [Compound 25, 5-[2-(5,5,8,8-Tetramethyl-5,6,7,8-tetrahydronaphthalen-2-yl)ethynyl]pyrazine-2-carboxylic Acid] |  | 927 | -8.23 kcal/mol |  | Non-competitive Binding |  | noncompetitive binding

Next, values leading:

binding preference RARα versus RARγ (from K D) (RARα [1]) | Kd (RARα [2]) [nM] | ΔGEXP RARα (RARα [2]) | Kd (RARγ) [nM] | ΔGEXP RARγ (RARγ) | Binding KD (± SD) RARα (RARα [2]) | Binding KD (± SD) RARγ (RARγ) | Structure (SMILES)
bind RARα preferentially over RARγ | 420 | -8.72 kcal/mol | 750 | -8.36 kcal/mol |  |  | Cc1cc2c(cc1C#Cc1ncc(C(=O)O)cn1)C(C)(C)CCC2(C)C [Compound 28, 2-[2-(3,5,5,8,8-Pentamethyl-5,6,7,8-tetrahydronaphthalen-2-yl)ethynyl]pyrimidine-5-carboxylic Acid]
bind RARγ stronger than RARα | 203 | -9.13 kcal/mol | 142 | -9.38 kcal/mol |  |  | CC1(C)CCC(C)(C)c2nc(C#Cc3ccc(C(=O)O)cc3F)cnc21 [Compound 31, 3-Fluoro-4-[2-(5,5,8,8-tetramethyl-5,6,7,8-tetrahydroquinoxalin-2-yl)ethynyl]benzoic Acid]
 |  | Non-competitive Binding |  | Non-competitive Binding | noncompetitive binding | noncompetitive binding | COc1cc2c(cc1C#Cc1ncc(C(=O)O)cn1)C(C)(C)CCC2(C)C [Compound 29, 2-[2-(3-Methoxy-5,5,8,8-tetramethyl-5,6,7,8-tetrahydronaphthalen-2-yl)ethynyl]pyrimidine-5-carboxylic Acid]
 |  | Non-competitive Binding |  | Non-competitive Binding | noncompetitive binding | noncompetitive binding | Cc1sc(-c2ccc(C(=O)O)cn2)nc1-c1cnc2c(n1)C(C)(C)CCC2(C)C [Compound 41, 6-[5-Methyl-4-(5,5,8,8-tetramethyl-5,6,7,8-tetrahydroquinoxalin-2-yl)-1,3-thiazol-2-yl]pyridine-3-carboxylic Acid]
